Experimental data taken from paper PMC10819809 (Microorganisms, 2024).
Values after ≈ are worked out from the molar mass of the structure shown. Square brackets hold non-standard residues; d marks the D form. Peptide text beside a SMILES is read from it.

System: multi-drug resistant (MDR) strain (MDR-TB, clinical isolate)
Details: microdilution broth, 96-well, 2 × 10^5 CFU/mL, 37 °C 14 days, resazurin 48 h; conducted twice with three technical replicates each

## CC[C@@H](C)[C@@H](NC(=O)[C@@H](CCCCN)NC(=O)[C@H](N)Cc1c[nH]c2ccccc12)C(=O)N[C@@H](C(=O)N[C@H](Cc1ccccc1)C(=O)N[C@H](CC(=O)O)C(=O)N[C@H](Cc1c[nH]c2ccccc12)C(=O)N[C@H](CCCNC(=N)N)C(=O)N[C@H](CCCNC(=N)N)C(N)=O)C(C)C [wkivfdwrr] (H-[dW][dK][dI][dV][dF][dD][dW][dR][dR]-NH2)
  MIC in µg/mL, MDR-TB: 20 µg/mL (≈ 15.3 µM)

## CC[C@@H](C)[C@@H](NC(=O)[C@@H](CCCCN)NC(=O)[C@H](N)Cc1c[nH]c2ccccc12)C(=O)N[C@@H](C(=O)N[C@H](Cc1ccccc1)C(=O)N[C@H](CC(N)=O)C(=O)N[C@H](Cc1c[nH]c2ccccc12)C(=O)N[C@H](CCCNC(=N)N)C(=O)N[C@H](CCCNC(=N)N)C(N)=O)C(C)C [wkivfnwrr] (H-[dW][dK][dI][dV][dF][dN][dW][dR][dR]-NH2; N-terminus assumed)
  MIC in µg/mL, MDR-TB: 20 µg/mL (≈ 15.3 µM)

## CC[C@@H](C)[C@@H](NC(=O)[C@@H](CCCCN)NC(=O)[C@H](N)Cc1c[nH]c2ccccc12)C(=O)N[C@@H](C(=O)N[C@H](Cc1ccccc1)C(=O)NCC(=O)N[C@H](Cc1c[nH]c2ccccc12)C(=O)N[C@H](CCCNC(=N)N)C(=O)N[C@H](CCCNC(=N)N)C(N)=O)C(C)C [wkivfGwrr] (H-[dW][dK][dI][dV][dF]G[dW][dR][dR]-NH2; N-terminus assumed)
  MIC in µg/mL, MDR-TB: 20 µg/mL (≈ 16 µM)

## CC[C@@H](C)[C@@H](NC(=O)[C@@H](CCCCN)NC(=O)[C@H](N)Cc1c[nH]c2ccccc12)C(=O)N[C@@H](C(=O)N[C@H](Cc1ccccc1)C(=O)N[C@H](Cc1c[nH]c2ccccc12)C(=O)N[C@H](Cc1c[nH]c2ccccc12)C(=O)N[C@H](CCCNC(=N)N)C(=O)N[C@H](CCCNC(=N)N)C(N)=O)C(C)C [peptide 14D] (H-[dW][dK][dI][dV][dF][dW][dW][dR][dR]-NH2)
  MIC in µg/mL, MDR-TB: >50 µg/mL

## CC[C@@H](C)[C@@H](NC(=O)[C@@H](CCCCN)NC(=O)[C@H](N)Cc1c[nH]c2ccccc12)C(=O)N[C@H](CO)C(=O)N[C@H](Cc1ccccc1)C(=O)N[C@H](Cc1c[nH]c2ccccc12)C(=O)N[C@H](Cc1c[nH]c2ccccc12)C(=O)N[C@H](CCCNC(=N)N)C(=O)N[C@H](CCCNC(=N)N)C(N)=O [wkisfwwrr] (H-[dW][dK][dI][dS][dF][dW][dW][dR][dR]-NH2; N-terminus assumed)
  MIC in µg/mL, MDR-TB: 20 µg/mL (≈ 14.7 µM)
